# Measurements from patent US8012938B2, “Dermatological and/or cosmetic composition containing polypeptides” (ISP Investments Inc., priority 2004, dated 2011).
# No end group written: not given here.
# How the values were obtained:
# Type in all cases: cell-based
# [1] = system: differentiated 3T3-L1 cells; assay: Measurement of glycerol released by adipocytes; details: active ingredient at 0.5% (solution at 50 ppm); 1 h 30, 3 h, 5 h, 7 h and 24 h; versus control wells
# Method: The purpose of this study was to determine the influence of the peptide according to the invention on glycerol release by adipocytes, glycerol being the result of lipolysis.
# Differentiated 3T3-L1 cells were treated with a 0.5% solution at 50 ppm, containing the peptide of SEQ ID NO:1, representative of the peptide family according to the invention, for periods of 1 h 30, 3 h, 5 h, 7 h and 24 h.
# The concentration of glycerol was determined using a series of enzymatic reactions leading to the formation of NADH of which the produced quantity was evaluated by spectrophometric readings at 340 nm, the formation of NADH being proportional to the quantity of glycerol released in the culture medium. An internal control of 1 mM glycerol was also used. The values were standardized in comparison to the quantity of proteins for each sample.
# [2] = system: differentiated 3T3-L1 cells; assay: Measurement of intracellular ATP; details: 0.5% solution at 50 ppm; period up to 96 hours
# Method: The aim of this study was to determine the influence of the peptide according to the invention on the quantity of intracellular ATP. The study was carried out using an “ATP Bioluminescence Assay HS II” kit. Differentiated 3T3-L1 cells were treated with a 0.5% solution at 50 ppm, containing the peptide of SEQ ID NO: 1, representative of the peptide family according to the invention, for a period up to 96 hours. At the end of the incubation time, the wells were emptied of their medium and were rinsed with 2 ml of cold PBS before adding 250 μl of lysis buffer, provided by the kit. The cells were then scraped, and then collected separately in 14 ml tubes. Each well was rinsed with 2×500 μl of cold PBS and everything was again collected in the respective tubes. Each tube was then placed in the polytron for 10 seconds at 18000 rpm. From these samples, a dilution of 1/12000, using cold PBS, was carried out before each reading. ATP quantity assessment was performed on these samples: 50 μl of this dilution were placed in a luma-basin and 50 μl of […] were added. The reading of luminescence started after 10 seconds. The values were standardized compared to the quantity of proteins for each sample. Measurements were taken using a Biocounter M2010A LUMAC®/3M.
# [3] = system: 3T3-L1 cells; assay: Oil red staining of lipid vacuoles of adipocytes; details: 0.5% solution at 50 ppm
# Method: Undifferentiated 3T3-L1 preadipocyte cell lines were seeded in 8-well Lab-Tek slides (for oil red staining), in 12-well plates (for ATP measurement), in 24-well plates (for cAMP measurement) and in 6-well plates (for glycerol measurement) as well as with DMEM culture medium (4.5 g/l) containing antibiotics. These 3T3-L1 preadipocytes were capable of entering, under certain conditions, the terminal differentiation phase.
# Once the 3T3-L1 cells had reached 100% confluence, they were differentiated by putting them into culture in various mediums, over a period of 6 to 8 days.
# During the first 2 days, cells were cultured in the presence of IBMX, dexamethasone, and insulin diluted in DMEM culture medium at 4.5 g/l. Then, they were cultured for two days only in the presence of insulin diluted in DMEM culture medium at 4.5 g/l and, finally, the cells were cultivated for 2 to 3 days in culture medium containing exclusively DMEM 4.5 g/l.
# Cell differentiation in mature adipocytes was visualized by the appearance of lipid droplets in the cytoplasm of the cells.
# The principle of this evaluative test on the effect of peptides rests on a microscopic observation of the number and size of lipid vacuoles of adipocytes after staining. Adipocytes were incubated or not in the presence of the substance to be tested.
# 3T3-L1 cells, seeded in 8-well Lab-Teks, were treated with the peptide of SEQ ID NO:1, i.e. of sequence Pro-Leu-Asp-Thr-Ala-Lys-Val-Arg-Leu-Gln, representative of the peptide family according to the invention, placed in a 0.5% solution at 50 ppm. The active ingredient was added at various stages of culture: • At the start of the incubation and until the end of adipocyte differentiation (72 hours of culture until 100% confluence, then for the 6 days of differentiation); • 6 hours after incubation and until the end of cell differentiation (66 hours of culture until 100% confluence, then for the 6 days of differentiation); • Once cells differentiated in the adipocytes, they were treated with the active ingredient for 6, 24, or 48 hours. […]
# [4] = system: differentiated 3T3-L1 cells; assay: Measurement of intracellular cAMP; details: 0.5% solution at 50 ppm; 15 minutes, 30 minutes or 1 hour; compared to cells treated with isoproterenol 1 μM
# Method: The objective of this test was to measure the variation of the intracellular concentration of cAMP in adipocytes, in order to deduce a possible activation of the phenomenon of lipolysis.
# The test was carried out on differentiated 3T3-L1 cells. These adipocytes were treated with the peptide of (SEQ ID NO: 1), i.e. of sequence Pro-Leu-Asp-Thr-Ala-Lys-Val-Arg-Leu-Gln, representative of the peptide family according to the invention, placed in a 0.5% solution at 50 ppm, for periods of 15 minutes, 30 minutes, or 1 hour. In parallel, differentiated 3T3-L1 cells were also treated with isoproterenol (an agent that induces lipolysis), at 1 μM, thus forming a positive control.
# After the various incubation periods, in the presence of the active ingredient being tested or in the presence of isoproterenol, the quantity of cAMP contained in adipocytes was measured using the “AMP Biotrak® EIA System” kit purchased from Amersham Biosciences as well as by a test principle, colorimetric ELISA. The kit made cell lysis possible through a solution allowing for the hydrolysis of cellular membranes and the release of intracellular cAMP in the medium. Followed by the binding of antibodies specific to intracellular cAMP extracted from samples, which is placed in competition with cAMP that has been coupled to the enzyme, peroxidase.
# [5] = added at the start of incubation or 6 hours after incubation until end of differentiation, compared with control cells
sequence,measurement,setting,value
"PLDTAKVRLQ [SEQ ID NO:1, peptide fragment from the UCP family]",glycerol release by differentiated cells,[1],identical
same,amount of intracellular ATP,[2],lack of increase
same,cell morphology,[3]; [5],less round morphology
same,content of intra-adipocyte lipid vesicles,[3]; [5],clearly decreased content of intra-adipocyte lipid vesicles
same,reduction of intra-adipocyte lipid vesicles in mature adipocytes,"[3]; applied once differentiation was completed, for 6, 24 or 48 hours",no reduction was observed
same,intracellular quantity of cAMP,[4],no increase
